Data published in US8551960B2, “Uses of D-mannopyranose derivatives activating angiogenesis” (Centre National de la Recherche Scientifique, priority 2008, dated 2013).

System: chick embryo chorioallantoic membrane (CAM)
Assay: chick embryo chorioallantoic membrane (CAM) angiogenesis study
Assay type: in vivo, chick (Leghorn white breed)
Details: nitrocellulose filter disk soaked with 20 μl of 6 mg/ml in PBS placed on CAM on 7th day; observed on 12th day; estimated visually; FIG. 1
Protocol: This study was conducted on chick embryos according to the method described by Ribatti D. et al., Nat. Protoc., 2006, 1(1), 85-91 with some minor modifications.
This study was conducted on chick embryo chorioallantoic membrane (CAM). The CAM is an extraembryonic membrane formed on the 4th day of incubation by fusion of the chorion and allantois. It enables gas exchanges to take place between the chick embryo and the extraembryonic environment until birth. This CAM is composed of a very thick capillary network which forms a continuous surface in direct contact with the shell. Rapid capillary proliferation of this membrane continues until the 11th day; the mitotic index then decreases rapidly and the vascular system reaches its final arrangement on the 18th day, just before birth (hatching on the 21st day).
Fertilized chicken eggs of the Leghorn white breed were placed in an incubator at the start of embryogenesis, where they were kept under constant humidity at a temperature of 38° C. On the second day of incubation, a window was made in the shell after removing 2 to 3 ml of albumin in order to detach the CAM from the shell. The window was then sealed with adhesive tape and the egg was put back in the incubator to continue its development until the day of the experiment. On the 7th day, pieces of inert synthetic polymers (nitrocellulose filter disks 0.4 cm in diameter) were soaked with 20 μl of each of the solutions of the test compounds (6 mg/ml in PBS) and were then positioned on the CAM. The effect of the test substances on angiogenesis was then observed on the 12th day and the quantitative evaluation of the pro- or antiangiogenic response was estimated visually.

| Molecule | effect on vascularization of the chick embryos (pro- or antiangiogenic response) |
| --- | --- |
| COC1O[C@H](CC(=O)O)[C@@H](O)[C@H](O)[C@@H]1O (stereo partly drawn) [DM4, (methyl 6,7-dideoxy-D-manno-heptopyranoside)uronic acid] | inhibitory effect on vascularization |
| COC1O[C@H](CC(C(=O)O)C(=O)O)[C@@H](O)[C@H](O)[C@@H]1O (stereo partly drawn) [DM3, methyl 6-deoxy-6-malonate-D-mannopyranoside] | inhibitory effect on vascularization |
| methyl 6,7-dideoxy-7-sulfonato-D-manno-heptopyranoside [DM2] | inhibitory effect on vascularization |
| COC1O[C@H](CCP(=O)(O)O)[C@@H](O)[C@H](O)[C@@H]1O (stereo partly drawn) [Compound I-4, methyl 7-phosphonato-6,7-dideoxy-D-manno-heptopyranoside] | activating effect on vascularization |
| CO[C@H]1O[C@H](CN=[N+]=[N-])[C@@H](O)[C@H](O)[C@@H]1O [Compound I-2, Methyl 6-Azido-6-Deoxy-α-D-Mannopyranoside] | activating effect on vascularization |
| CO[C@H]1O[C@H](CCN)[C@@H](O)[C@H](O)[C@@H]1O [Compound I-1, Methyl 7-amino-6,7-dideoxy-α-D-manno-heptopyranoside] | activating effect on vascularization |
| COC1O[C@H](COP(=O)([O-])[O-])[C@@H](O)[C@H](O)[C@@H]1O.[Na+].[Na+] (stereo partly drawn) [DM1, methyl(disodium)-6-phosphate-D-manno-pyranoside] | inhibitory effect on vascularization |
